{
  "source": "patent US20230301973A1",
  "about": "“TREATMENT OF DIFFUSE INTRINSIC PONTINE GLIOMA” (priority 2016, published 2023)",
  "key": {"[1]": {"conditions": "cited from earlier work; for MTD: clinical"}, "normal astrocytes": {"system": "normal astrocytes", "experiment": "Effect on normal astrocytes", "type": "cell-based", "conditions": "10 nanomolar"}, "primary DIPG cell lines": {"system": "primary DIPG cell lines", "experiment": "Effect on primary DIPG cell lines / primary tumor astrocytes", "type": "cell-based", "source_text": "Maternal embryonic leucine zipper kinase (MELK) is a serine/threonine kinase implicated in many cellular processes involved in embryogenesis and oncogenesis. Overexpression of MELK is a common feature of diffuse intrinsic pontine glioma (DIPG) and related to tumor grade."}, "[2]": {"experiment": "Transport over the blood-brain barrier, brain-to-plasma ratio", "type": "in vivo, mouse"}},
  "note": "Read-outs that look alike come from different tables or passages of the source.",
  "data": [
    {"compound": "CCN(CCCOc1ccc2c(Nc3cc(CC(=O)Nc4cccc(F)c4)n[nH]3)ncnc2c1)CCOP(=O)(O)O", "note": "[AZD1152]", "values": [
      {"measurement": "MTB", "setting": "[1]; clinical evaluation, dependent on the dosing schedule", "value": "200 to 450", "unit": "mg"}
    ]},
    {"compound": "C[C@@H](Oc1cc(-c2cnn(C3CCNCC3)c2)cnc1N)c1c(Cl)ccc(F)c1Cl", "note": "[Crizotinib]", "values": [
      {"measurement": "MTD", "setting": "[1]", "value": 250, "unit": "mg twice a day"}
    ]},
    {"compound": "Nc1ncn([C@H]2C[C@H](O)[C@@H](CO)O2)c(=O)n1", "note": "[Decitabine]", "values": [
      {"measurement": "MTD", "setting": "[1]; over 1-3 days", "value": "1,500-2,000/mg/m^2 over 1-3 days"}
    ]},
    {"compound": "Cc1cccc(-c2nn3c(c2-c2ccnc4ccc(C(N)=O)cc24)CCC3)n1", "note": "[Galunisertib]", "values": [
      {"measurement": "MTD", "setting": "[1]; result in words", "value": "Not able to determine MTD due to potential cardiovascular DLT"}
    ]},
    {"compound": "CC[C@H](Nc1ncnc2[nH]cnc12)c1nc2cccc(F)c2c(=O)n1-c1ccccc1", "note": "[Idelalisib]", "values": [
      {"measurement": "MTD", "setting": "[1]", "value": "Not reached up to 350 mg twice a day"}
    ]},
    {"compound": "CC(=O)c1cnc2ccc(-c3cc(Cl)c(O)c(Cl)c3)nc2c1NC1CCC(CN(C)C)CC1", "note": "(stereo not shown) [OTS167, 1-[6-(3,5-Dichloro-4-hydroxyphenyl)-4-({4-[(dimethylamino)methyl]cyclohexyl}amino)-1,5-naphthyridin-3-yl]ethanone]", "values": [
      {"measurement": "Apoptosis in non-somatic (normal) cells", "setting": "normal astrocytes", "value": "no apoptosis occurs"},
      {"measurement": "Growth of normal astrocytes", "setting": "normal astrocytes", "value": "only slightly slows down the growth"},
      {"measurement": "Toxicity / apoptosis on primary tumor astrocytes", "setting": "primary DIPG cell lines; 10 nM, most DIPG tumor cell lines", "value": "toxic and induces apoptosis"},
      {"measurement": "Cell death in primary DIPG cell lines", "setting": "primary DIPG cell lines; low nanomolar concentrations", "value": "induces cell death"},
      {"measurement": "Migration of primary DIPG cell lines", "setting": "primary DIPG cell lines; low nanomolar concentrations", "value": "effectively inhibits migration"},
      {"measurement": "Proliferation of primary DIPG cell lines", "setting": "primary DIPG cell lines; low nanomolar concentrations", "value": "reduces proliferation"},
      {"measurement": "Factor of increase of concentration in brain tissue", "setting": "[2]; co-administering a P-glycoprotein1 / Abcb1a inhibitor", "value": "≥ 4"},
      {"measurement": "Kp", "setting": "[2]; mouse, brain and plasma, mouse models (wild type), passive transport, read-out: Brain-to-plasma (B/P) ratio", "value": 0.02},
      {"measurement": "Absolute concentration reached in the brain", "setting": "[2]; with pharmaceutically acceptable toxic adverse effects", "value": "about 10 nanomolar"}
    ]},
    {"compound": "CS(=O)(=O)c1ccc(C(=O)Nc2ccc(Cl)c(-c3ccccn3)c2)c(Cl)c1", "note": "[Vismodegib]", "values": [
      {"measurement": "MTD", "setting": "[1]", "value": "Not reached up to 540 mg/d"}
    ]},
    {"compound": "Pembrolizumab", "values": [
      {"measurement": "MTD", "setting": "[1]", "value": "Not reached up to 10 mg/kg q2w"}
    ]}
  ]
}
